Source: PubChem BioAssay (NCI)
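Following 48 hours of exposure in 96-well plates, responses at five concentrations were used to interpolate endpoints linearly. Here, GI50 denotes the concentration required for 50% inhibition of growth. At the TGI there is no net growth.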

How the values were obtained:
Test in all cases: NCI-60 cell line screen, 48 h
[1] = test system: TK-10 renal
[2] = test system: HL-60(TB) leukemia
[3] = test system: NCI-H522 lung
[4] = test system: SF-268 CNS
[5] = test system: UACC-62 melanoma
[6] = test system: DU-145 prostate
[7] = test system: BT-549 breast
[8] = test system: A549 NSCLC
[9] = test system: K-562 leukemia
[10] = test system: SNB-75 CNS
[11] = test system: RPMI-8226 leukemia
[12] = test system: T-47D breast
[13] = test system: OVCAR-5 ovarian
[14] = test system: SK-OV-3 ovarian
[15] = test system: SK-MEL-2 melanoma
[16] = test system: MOLT-4 leukemia
[17] = test system: M14 melanoma
[18] = test system: U251 CNS
[19] = test system: MDA-MB-435
[20] = test system: EKVX NSCLC
[21] = test system: SK-MEL-5 melanoma
[22] = test system: A498 renal
[23] = test system: HCT-15 colon
[24] = test system: NCI-H460 lung
[25] = test system: CCRF-CEM leukemia
[26] = test system: HS 578T breast
[27] = test system: SW-620 colon
[28] = test system: UACC-257 melanoma
[29] = test system: HCC-2998 colon
[30] = test system: SK-MEL-28 melanoma
[31] = test system: 786-0 renal
[32] = test system: SF-295 CNS
[33] = test system: LOX IMVI melanoma
[34] = test system: HCT-116 colon
[35] = test system: MALME-3M melanoma
[36] = test system: SNB-19 CNS
[37] = test system: NCI-H23 lung
[38] = test system: SN12C renal
[39] = test system: MDA-MB-231 breast
[40] = test system: HOP-62 NSCLC
[41] = test system: HT29 colon
[42] = test system: HOP-92 NSCLC
[43] = test system: IGROV1 ovarian
[44] = test system: UO-31 renal
[45] = test system: SR leukemia
[46] = test system: OVCAR-4 ovarian
[47] = test system: PC-3 prostate
[48] = test system: ACHN renal
[49] = test system: KM12 colon
[50] = test system: MCF7 breast
[51] = test system: RXF 393 renal
[52] = test system: SF-539 CNS
[53] = test system: NCI/ADR-RES ovarian
[54] = test system: NCI-H226 lung
[55] = test system: OVCAR-3 ovarian
[56] = test system: COLO 205 colon
[57] = test system: OVCAR-8 ovarian

## CC1=C(CCCNS(C)(=O)=O)C2=C(C)C3(CC3)[C@@](C)(O)C(=O)C2=C1
[1]
  GI50: 2.61 µM
  TGI: 8.52 µM
[2]
  GI50: 1.98 µM
  TGI: > 24 µM
[3]
  GI50: 2.09 µM
  TGI: 7.7 µM
[4]
  GI50: 0.373 µM
  TGI: 14.2 µM
[5]
  GI50: 1.47 µM
  TGI: 3.45 µM
[6]
  GI50: 0.369 µM
  TGI: 17.4 µM
[7]
  GI50: 0.749 µM
  TGI: 3.89 µM
[8]
  GI50: 1.64 µM
  TGI: 24.8 µM
[9]
  GI50: 61.8 µM
  TGI: > 100 µM
[10]
  GI50: 0.342 µM
  TGI: 1.67 µM
[11]
  GI50: > 64.5 µM
  TGI: > 100 µM
[12]
  GI50: 0.563 µM
  TGI: 6.02 µM
[13]
  GI50: 0.654 µM
  TGI: 7.62 µM
[14]
  GI50: 0.304 µM
  TGI: 1.11 µM
[15]
  GI50: 1.67 µM
  TGI: 4.13 µM
[16]
  GI50: 37.2 µM
  TGI: > 100 µM
[17]
  GI50: 0.807 µM
  TGI: 2.75 µM
[18]
  GI50: 2.32 µM
  TGI: > 100 µM
[19]
  GI50: 1.99 µM
  TGI: 5.41 µM
[20]
  GI50: 2.31 µM
  TGI: 7.72 µM
[21]
  GI50: 0.492 µM
  TGI: 1.98 µM
[22]
  GI50: 1.05 µM
  TGI: 2.77 µM
[23]
  GI50: 1.23 µM
  TGI: > 100 µM
[24]
  GI50: 0.266 µM
  TGI: 0.812 µM
[25]
  GI50: 44.1 µM
  TGI: > 100 µM
[26]
  GI50: 2.73 µM
  TGI: 11.1 µM
[27]
  GI50: 55.5 µM
  TGI: > 100 µM
[28]
  GI50: 1.78 µM
  TGI: 4.41 µM
[29]
  GI50: 1.52 µM
  TGI: 4.51 µM
[30]
  GI50: 1.94 µM
  TGI: 4.75 µM
[31]
  GI50: 0.816 µM
  TGI: 6.32 µM
[32]
  GI50: 0.634 µM
  TGI: 19.9 µM
[33]
  GI50: 1.8 µM
  TGI: 6.34 µM
[34]
  GI50: 0.863 µM
  TGI: > 100 µM
[35]
  GI50: 0.776 µM
  TGI: 2.62 µM
[36]
  GI50: 1.93 µM
  TGI: > 100 µM
[37]
  GI50: 0.269 µM
  TGI: 1.83 µM
[38]
  GI50: 1.78 µM
  TGI: > 100 µM
[39]
  GI50: 1.63 µM
  TGI: 6.5 µM
[40]
  GI50: 0.421 µM
  TGI: 2.33 µM
[41]
  GI50: 1.87 µM
  TGI: > 100 µM
[42]
  GI50: 0.303 µM
  TGI: 1.41 µM
[43]
  GI50: 0.259 µM
  TGI: 1.15 µM
[44]
  GI50: 0.5 µM
  TGI: 2.3 µM
[45]
  GI50: 36.2 µM
  TGI: > 100 µM
[46]
  GI50: 0.9 µM
  TGI: 5.32 µM
[47]
  GI50: 1.68 µM
  TGI: > 100 µM
[48]
  GI50: 2.14 µM
  TGI: 7.58 µM
[49]
  GI50: 3.99 µM
  TGI: > 100 µM
[50]
  GI50: 2.01 µM
  TGI: > 100 µM
[51]
  GI50: 0.199 µM
  TGI: 0.419 µM
[52]
  GI50: 0.969 µM
  TGI: 3.26 µM
[53]
  GI50: 1.38 µM
  TGI: 18.1 µM
[54]
  GI50: 1.04 µM
  TGI: 5.79 µM
[55]
  GI50: 0.89 µM
  TGI: 4.7 µM
[56]
  GI50: 0.853 µM
  TGI: 2.69 µM
[57]
  GI50: 0.518 µM
  TGI: 5.36 µM
